ChEMBL document CHEMBL1201862, “PubChem BioAssay data set” (2004)
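Where inhibition never reached the appropriate level, the endpoint shown equals the highest concentration tested. Otherwise, values were interpolated linearly from a five-concentration, 48-hour dose response in 96-well plates. Abbreviation: GI50, concentration required for 50% inhibition of growth.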 Active and inactive are the calls of the source. Cut-off read from the data, not from the text of the source: active = GI50 up to about 1.1 µM and inactive = higher.

Key:
Assay in all cases: inhibition of tumour cell growth, NCI panel, 48 h
786-0 = test system: 786-0
A498 = test system: A498
A549 = test system: A549
ACHN = test system: ACHN
BT-549 = test system: BT-549
CAKI-1 = test system: CAKI-1
CCRF-CEM = test system: CCRF-CEM
COLO 205 = test system: COLO 205
DU-145 = test system: DU-145
EKVX = test system: EKVX
HCC 2998 = test system: HCC 2998
HCT-116 = test system: HCT-116
HCT-15 = test system: HCT-15
HOP-62 = test system: HOP-62
HOP-92 = test system: HOP-92
HT-29 = test system: HT-29
Hs-578T = test system: Hs-578T
IGROV-1 = test system: IGROV-1
K562 = test system: K562
KM12 = test system: KM12
M14 = test system: M14
MCF7 = test system: MCF7
MDA-MB-231 = test system: MDA-MB-231
MDA-MB-435 = test system: MDA-MB-435
MDA-N = test system: MDA-N
MOLT-4 = test system: MOLT-4
Malme-3M = test system: Malme-3M
NCI-H226 = test system: NCI-H226
NCI-H23 = test system: NCI-H23
NCI-H460 = test system: NCI-H460
NCI/ADR-RES = test system: NCI/ADR-RES
OVCAR-3 = test system: OVCAR-3
OVCAR-4 = test system: OVCAR-4
OVCAR-5 = test system: OVCAR-5
OVCAR-8 = test system: OVCAR-8
PC-3 = test system: PC-3
RPMI-8226 = test system: RPMI-8226
RXF 393 = test system: RXF 393
SF-268 = test system: SF-268
SF-295 = test system: SF-295
SK-MEL-28 = test system: SK-MEL-28
SK-MEL-2 = test system: SK-MEL-2
SK-MEL-5 = test system: SK-MEL-5
SK-OV-3 = test system: SK-OV-3
SN12C = test system: SN12C
SNB-19 = test system: SNB-19
SNB-75 = test system: SNB-75
SR = test system: SR
SW-620 = test system: SW-620
T47D = test system: T47D
TK-10 = test system: TK-10
U-251 = test system: U-251
UACC-257 = test system: UACC-257
UACC-62 = test system: UACC-62
UO-31 = test system: UO-31
HL-60 = test system: HL-60
LOX IMVI = test system: LOX IMVI
NCI-H522 = test system: NCI-H522
SF-539 = test system: SF-539

Measured: GI50

COC(=O)[C@H](Cc1ccccc1)NC(=O)c1ccc(CNC(=O)/C=C/c2cccc(Oc3ccccc3)c2)cc1
6.24 µM: HCT-15
inactive: 786-0 17.3 µM | A498 23.1 µM | A549 > 100 µM | ACHN 16.4 µM | BT-549 > 100 µM | CAKI-1 16.5 µM | CCRF-CEM 11 µM | COLO 205 21.3 µM | DU-145 40.6 µM | EKVX 30.8 µM | HCC 2998 35.4 µM | HCT-116 37 µM | HOP-62 77.3 µM | HOP-92 5.31 µM | HT-29 61.8 µM | Hs-578T 10.4 µM | IGROV-1 7.31 µM | K562 7.08 µM | KM12 40.8 µM | M14 11.9 µM | MCF7 12.8 µM | MDA-MB-231 18.7 µM | MDA-MB-435 5.35 µM | MDA-N 4.16 µM | MOLT-4 9.71 µM | Malme-3M 15.1 µM | NCI-H226 52.7 µM | NCI-H23 36.7 µM | NCI-H460 24.9 µM | NCI/ADR-RES 31.3 µM | OVCAR-3 11.8 µM | OVCAR-4 34.4 µM | OVCAR-5 > 100 µM | OVCAR-8 36.4 µM | PC-3 29.4 µM | RPMI-8226 28.3 µM | RXF 393 7.31 µM | SF-268 14.6 µM | SF-295 44.1 µM | SK-MEL-28 9.33 µM | SK-MEL-2 10.3 µM | SK-MEL-5 16.3 µM | SK-OV-3 53.5 µM | SN12C 26.1 µM | SNB-19 28 µM | SNB-75 34.8 µM | SR 6.79 µM | SW-620 9.98 µM | T47D 56 µM | TK-10 24.8 µM | U-251 18.3 µM | UACC-257 6.27 µM | UACC-62 7.91 µM | UO-31 26.7 µM

CN1CN(c2ccccc2)C2(CCN(C3Nc4ccccc4O3)CC2)C1=O (centres undefined)
inactive: 786-0 20.6 µM | A498 15.5 µM | A549 27.3 µM | ACHN 22 µM | BT-549 15.7 µM | CAKI-1 25.5 µM | CCRF-CEM 13.2 µM | COLO 205 16.3 µM | DU-145 22.7 µM | HCT-116 16.2 µM | HL-60 12.5 µM | HOP-62 17 µM | HT-29 17.9 µM | Hs-578T 12.9 µM | IGROV-1 22.9 µM | K562 18.5 µM | KM12 19.6 µM | LOX IMVI 13.6 µM | M14 18.5 µM | MCF7 19.5 µM | MDA-MB-231 20.1 µM | MDA-MB-435 19 µM | MDA-N 17.9 µM | MOLT-4 9.57 µM | Malme-3M 17.3 µM | NCI-H226 18.6 µM | NCI-H23 21.2 µM | NCI-H460 17.7 µM | NCI-H522 17.5 µM | NCI/ADR-RES 20.8 µM | OVCAR-3 17.2 µM | OVCAR-5 17.6 µM | OVCAR-8 26.2 µM | PC-3 16.7 µM | RPMI-8226 11.7 µM | RXF 393 14.5 µM | SF-268 23.3 µM | SF-295 16.6 µM | SF-539 15.1 µM | SK-MEL-28 23.5 µM | SK-MEL-2 13.6 µM | SK-MEL-5 17.7 µM | SK-OV-3 19.6 µM | SN12C 19.2 µM | SNB-19 23.7 µM | SNB-75 20.9 µM | SR 36.9 µM | SW-620 33.7 µM | T47D 22.2 µM | TK-10 11.1 µM | U-251 18.2 µM | UACC-257 16.7 µM | UACC-62 16.1 µM | UO-31 27.5 µM
15.2 µM: HCT-15

O=C(O)c1ccc2c(O)c(O)ccc2c1
inactive: 786-0 18.1 µM | A498 44.4 µM | A549 28 µM | ACHN 15.8 µM | BT-549 21.6 µM | CAKI-1 21.6 µM | COLO 205 26.2 µM | DU-145 39.8 µM | EKVX 20.8 µM | HCC 2998 33.3 µM | HCT-116 25.9 µM | HOP-62 20.7 µM | HOP-92 32.8 µM | HT-29 6.82 µM | Hs-578T 27.2 µM | IGROV-1 19.7 µM | K562 7.8 µM | KM12 16.4 µM | LOX IMVI 5.38 µM | M14 23.5 µM | MCF7 7.23 µM | MDA-MB-231 29 µM | MDA-MB-435 14.1 µM | MDA-N 18.5 µM | MOLT-4 6.75 µM | Malme-3M 38.9 µM | NCI-H226 18.7 µM | NCI-H23 22 µM | NCI-H522 16.9 µM | NCI/ADR-RES 19.5 µM | OVCAR-3 18.8 µM | OVCAR-4 21.5 µM | OVCAR-5 26.3 µM | OVCAR-8 20 µM | PC-3 33.7 µM | RPMI-8226 15.4 µM | RXF 393 20.9 µM | SF-268 8.47 µM | SF-295 15.2 µM | SF-539 4.81 µM | SK-MEL-28 > 100 µM | SK-MEL-2 26.8 µM | SK-MEL-5 17.3 µM | SK-OV-3 > 43.1 µM | SN12C 8.61 µM | SNB-19 18.8 µM | SNB-75 10.4 µM | SR 3.17 µM | SW-620 26.5 µM | T47D 45.4 µM | TK-10 13.8 µM | U-251 19.9 µM | UACC-257 21.1 µM | UACC-62 > 10 µM | UO-31 19.5 µM
21.6 µM: HCT-15

COc1ccc(-c2cc(-c3ccco3)c(C#N)c(=S)n2C2OC(COC(C)=O)C(OC(C)=O)C(OC(C)=O)C2OC(C)=O)cc1 (centres undefined)
31.6 µM: HCT-15
inactive: 786-0 3.28 µM | A549 5.9 µM | ACHN 6.82 µM | BT-549 2.82 µM | CAKI-1 3.98 µM | COLO 205 4.36 µM | DU-145 7.94 µM | EKVX 13.5 µM | HCC 2998 14.9 µM | HCT-116 6.79 µM | HL-60 3.98 µM | HOP-62 2.61 µM | HOP-92 4.02 µM | HT-29 3.24 µM | Hs-578T 3.15 µM | IGROV-1 13.3 µM | K562 2.43 µM | KM12 11.9 µM | LOX IMVI 3.64 µM | M14 5.27 µM | MCF7 23.6 µM | MDA-MB-231 4.47 µM | MDA-MB-435 7.71 µM | MDA-N 5.5 µM | MOLT-4 12.3 µM | Malme-3M 5.18 µM | NCI-H226 5.7 µM | NCI-H23 9.71 µM | NCI-H460 5.11 µM | NCI-H522 4.56 µM | NCI/ADR-RES 12.7 µM | OVCAR-3 7.13 µM | OVCAR-4 2.54 µM | OVCAR-5 15.6 µM | OVCAR-8 3.78 µM | PC-3 4.07 µM | RPMI-8226 2.96 µM | RXF 393 9.53 µM | SF-268 8.45 µM | SF-295 1.96 µM | SF-539 1.85 µM | SK-MEL-28 3.3 µM | SK-MEL-5 10.6 µM | SK-OV-3 13.8 µM | SN12C 10.1 µM | SNB-19 5.66 µM | SNB-75 5.85 µM | SR > 10 µM | SW-620 6.19 µM | T47D 5.24 µM | TK-10 30.2 µM | U-251 5.94 µM | UACC-62 3.72 µM | UO-31 13.7 µM

COC(OC)C1OC(CO)C(n2cc(C)c(=O)[nH]c2=O)C1O (centres undefined)
inactive: 786-0 > 100 µM | A498 > 100 µM | A549 > 100 µM | ACHN > 100 µM | BT-549 > 100 µM | CAKI-1 > 100 µM | CCRF-CEM > 100 µM | COLO 205 > 100 µM | DU-145 > 100 µM | EKVX > 100 µM | HCC 2998 > 100 µM | HCT-116 > 100 µM | HOP-62 > 100 µM | HOP-92 > 100 µM | HT-29 > 100 µM | Hs-578T > 100 µM | IGROV-1 > 100 µM | K562 > 100 µM | KM12 > 100 µM | LOX IMVI > 100 µM | M14 > 100 µM | MCF7 > 100 µM | MDA-MB-231 > 100 µM | MDA-MB-435 > 100 µM | MDA-N > 100 µM | MOLT-4 > 100 µM | Malme-3M > 100 µM | NCI-H226 > 100 µM | NCI-H23 > 100 µM | NCI-H460 > 100 µM | NCI-H522 > 100 µM | NCI/ADR-RES > 100 µM | OVCAR-3 > 100 µM | OVCAR-4 > 100 µM | OVCAR-5 > 100 µM | OVCAR-8 > 100 µM | PC-3 > 100 µM | RPMI-8226 > 100 µM | RXF 393 61.7 µM | SF-268 > 100 µM | SF-295 > 100 µM | SF-539 > 100 µM | SK-MEL-28 > 100 µM | SK-MEL-2 > 100 µM | SK-MEL-5 > 100 µM | SK-OV-3 > 100 µM | SN12C > 100 µM | SNB-19 > 100 µM | SNB-75 > 100 µM | SR > 100 µM | SW-620 > 100 µM | T47D > 100 µM | TK-10 > 100 µM | U-251 > 100 µM | UACC-257 > 100 µM | UACC-62 > 100 µM | UO-31 > 100 µM
> 100 µM: HCT-15
